Measured values published in US20220409573A1, “Hippocampus Regeneration And Memory Recovery” (INNOBIOSCIENCE, LLC, priority 2021, published 2022).
Entries after “also recorded” stand apart in the source; their conditions may differ.

Key:
[1] = tested on: Aβ oligomers in the hippocampus of APPswe/PS-1 mice; assay: Slot blot of Aβ oligomers with A11 antibody; assay type: in vivo
[2] = tested on: tau phosphorylation in the hippocampus of APPswe/PS-1 mice; assay: Tau phosphorylation immunoblot (PHF-1, AT8) in treated APPswe/PS-1 mice; assay type: in vivo; settings: hippocampus of 6 month-old APPswe/PS-1 mice, vs untreated
[3] = tested on: GSK-3β; assay: Immunoblot of GSK-3β phosphorylation and β-catenin in Wt hippocampal slices; assay type: cell-based, mice
Method: Immunoblotting. The hippocampus and cortex of treated or control transgenic mice were dissected on ice and immediately processed has detailed previously (Toledo & Inestrosa 2010). Briefly, hippocampal and cortical tissues were homogenized in RIPA buffer (10 mM Tris-Cl, pH 7.4, EDTA 5 mM, 1% NP-40, 1% sodium deoxycholate, and 1% SDS) supplemented with a protease inhibitor mixture and phosphatase inhibitors (25 mMNaF, […] and 30 μM Na4P207) using a Potter homogenizator and then passed sequentially through different caliber syringes. Protein samples were centrifuged at 14000 rpm at 4° C. twice for 15 min. Protein concentrations were determined using the BCA Protein Assay Kit (Pierce). Samples were resolved by SDS-PAGE followed by immunoblotting on PVDF membranes. Western blot assays were carried out as previously described (Inestrosa et al 2013; Toledo & Inestrosa 2010).
Slice Preparation and Electrophysiology. Hippocampal slices were prepared according to standard procedures previously described (Cerpa et al 2010; VarelaNallar et al 2010). Briefly, transverse slices (350 μm) from the dorsal hippocampus were cut under cold artificial cerebrospinal fluid (ACSF, in mM: 124 NaCl, […], 10 D-glucose, 2.69 KCl, 1.25 KH2PO4 2.5 CaCl2, 1.3 MgSO4, y 2.60 NaHPO4) using a V ibratome (Leica VT 1000s, Germany) and incubated in ACSF for 1 h at room temperature. In all experiments, 10 μM picrotoxin (PTX) was added to suppress inhibitory GABAA transmission (Cuitino et al 2010). Slices were transferred to an experimental chamber (2 ml), superfused (3 ml/min, at 20-22° C.) with gassed ACSF and visualized by trans-illumination with a binocular microscope (MSZ-10, Nikon, Melville, N.Y.). […] The paired pulse facilitation index was calculated by ((R2−R1)/R1), where R1 and R2 were the peak amplitudes of the first and second fEPSP respectively. […] Evoked postsynaptic responses were analyzed off-line, using an analysis software (pClampfit, Molecular Devices), which allowed visual detection of events, computing only those events that exceeded and arbitrary threshold.

[4] = tested on: Wnt/β-catenin pathway in hippocampal slices; assay: β-catenin, GSK-3β and Dvl-3 western blot in hippocampal slices of wild-type mice; assay type: cell-based
Method: Slice preparation. […] Transverse slices (250-300 μm) from the dorsal hippocampus were cut under oxygen-saturated cold artificial cerebrospinal fluid using a Vibroslice microtome (VSL, World Precision Instruments, Inc WPI, Sarasota, Fla.). After obtained, slices were incubated in ACSF for at least than one hour at room temperature, in order to stabilize activity.
Immunoblotting. […] Briefly, tissues were homogenized in RIPA buffer (10 mM Tris-Cl, pH 7.4, EDTA 5 mM, 1% NP-40, 1% sodium deoxycholate, and 1% SDS) supplemented with a protease inhibitor mixture (1 mM PMSF, 2 μg/mL aprotinin, 1 μg/mL pepstatin and 10 μg/mL benzamidine) and phosphatase inhibitors (25 mMNaF, 100 mM Na3VO4, 1 mM EDTA and 30 μM Na4P207) using a Potter homogenizator and then passed sequentially through different caliber syringes. […] Protein concentration was determined using the BCA Protein Assay Kit (Pierce). […] The reactions were followed by incubation with anti-mouse, anti-goat or anti-rabbit IgG peroxidase conjugated (Pierce, Rockford, Ill.) and developed using an ECL kit (Western Lightning Plus ECL, PerkinElmer).

[5] = tested on: HEK293T cells; assay: TOP/FOP flash luciferase reporter assay; assay type: cell-based
Method: Luciferase Assay. 150,000 HEK293T cells were seeded in triplicate per condition and kept for 24 hours at 37° C. with 5% CO2. The cultures were transfected with TOPflash or FOPflash (400 ng), which are firefly-luciferase reporter DNA constructs (Milipore), using LipofectAMINE 2000 (Invitrogen). To control for transfection pRL-TK (10 ng) was included in all transfections. […] Values were normalized by the renilla value from the same well. To statistically compare treatments ANOVA was used.

[6] = tested on: Wnt target genes; assay: PCR array of Wnt target genes in hippocampal neurons; assay type: cell-based, rat
Method: Primary culture of rat hippocampal neurons. […] PCR-ARRAY. RNA from hippocampal neurons was extracted using Trizol. Quantification and purity of RNA preparations were checked by absorbance using Nanodrop ND-2000. Only preparations with a 260/280 nm ratio≥1.8, a 260/230 nm ratio ≥1,7 and no sign of RNA degradations, verified by agarose gel electrophoresis with Gel Red TM were used. Genomic DNA was degraded. Using RT2First-Strand cDNA Synthesis kit (SuperArray), 1 μg total RNA was reverse transcribed and then real-time PCR was performed by adding cDNA directly to PCR Master Mix, containing SYBR Green and ROX. The mixtures were then aliquoted into a 96-well PCR array plates, which profiles the expression of 84 Wnt target genes from rat. The PCR was run on ABI StepOnePlus, with 1 cycle of 10 min at 95° C. followed by 40 cycles of 15 s at 95° C. and 1 min at 60° C.
Treatment of neuronal cultures. Primary hippocampal cultures of neurons 14 DIV were washed twice in neurobasal medium and maintained for 1 hour.

[7] = Wt hippocampal slices, 10 μM ANDRO for 1 hr
[8] = 9 h treatment, of the 86 genes analyzed

For C=C1CC[C@@H]2C(C)(CO)[C@H](O)CC[C@@]2(C)C1C/C=C1/C(=O)OC[C@H]1O (stereo in doubt) [ANDRO, 3-(2-(Decahydro-6-hydroxy-5-(hydroxymethyl)-5,8a-dimethyl-2-methylenenaphthyl)ethylidene)dihydro-4-hydroxyfuran-2(3H)-one], which “level of Aβ oligomers (A11 slot-blot)” value ([1]; 7 month-old APPswe/PS-1 mice) is on record?
The value was “did not show significant changes”.

What about the “levels of Aβ-oligomers (A11 slot blot)” value ([1]; FIG. 3G (old APPswe/PS-1 mice per legend)) of the same compound?
Its value is “did not show significant changes”.

What about the “PHF-1- and AT8-positive tau levels” value [2] of the same compound?
The value was “reduction in PHF-1- and AT8-positive tau levels”.

And the “levels of β-catenin” value ([3]; Wt hippocampal slices incubated with ANDRO)?
The value was “increase in the levels of β-catenin”.

What about the “active form of GSK-3β (Tyr-216 phosphorylation)” value [3, 7] of the same compound?
Its value is “decrease of Tyr-216 phosphorylation; also recorded: reduction of the active form”.

And the “inactive form of GSK-3β (Ser-9 phosphorylation)” value [3, 7]?
The value was “increment of Ser-9 phosphorylation; also recorded: increase in the levels of the inactive form”.

And the “time at which total levels of β-catenin increased” value ([4]; 5 μM ANDRO, Wnt3a conditioned medium or 10 nM 6-BIO, up to 1 h)?
Its value is 15 min.

What about the “rate of increase of GSK3β Ser-9 and decrease of Tyr-216 phosphorylation” value ([4]; compared to Wnt-3a treatment) of the same compound?
Its value is “faster”.

What about the “mobility shift (phosphorylation) of Dvl-3” value ([4]; hippocampal slices, 1 h) of the same compound?
The value was “does not induce a mobility shift of Dvl-3”.

And the TOPflash reporter activity ([5]; ANDRO 10 μM or 6-BIO 10 nM, 24 h)?
Its TOPflash reporter activity is “significant increase”.

What about the “increase of luciferase reporter over control” value ([5]; TOPflash, HEK293T) of the same compound?
The value was 4 fold.

What about the Cdh-1 gene expression [6] of the same compound?
The Cdh-1 gene expression was “differential expression”.

What about the “number of Wnt target genes specifically modulated” value [6, 8] of the same compound?
The value was 3 genes.

What about the “number of changed Wnt target genes shared by ANDRO and 6-BIO” value [6, 8] of the same compound?
Its value is 4 genes.

And the Ets2 gene expression ([6]; after Bonferroni correction)?
Its Ets2 gene expression is “down-regulation of Ets2 gene”.
